Experimental data: the supplement of paper PMC10307832

Assays:
Assay in all cases: relative viability (nuclei count vs DMSO), 5 days (fraction); higher = more cells survive
[1] = compound: CC(C)N(CCCNC(=O)Nc1ccc(C(C)(C)C)cc1)C[C@H]1O[C@@H](n2ccc3c(N)ncnc32)[C@H](O)[C@@H]1O + O=C(c1cc(Cc2n[nH]c(=O)c3ccccc23)ccc1F)N1CCN(C(=O)C2CC2)CC1 [Olaparib] (partner 8 µM)
How it was run: (§1)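 Medians of duplicate plates are given as relative viability. That measure is the nuclei count in treated wells divided by the count in vehicle wells. Counts were taken on 4× images of lung cancer cell lines in 1536-well plates, 5 days after pin-tool dosing the day after seeding with one drug alone or a fixed anchor-drug dose plus five library-drug doses (not always all listed) in √10 steps.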

[2] = compound: CC(C)N(CCCNC(=O)Nc1ccc(C(C)(C)C)cc1)C[C@H]1O[C@@H](n2ccc3c(N)ncnc32)[C@H](O)[C@@H]1O + Nc1nc2[nH]cc(CCc3ccc(C(=O)N[C@@H](CCC(=O)O)C(=O)O)cc3)c2c(=O)[nH]1 [Pemetrexed] (partner 0.2 µM)
How it was run: as §1

Shikonin + Linsitinib = compound: CC(C)=CC[C@@H](O)C1=CC(=O)c2c(O)ccc(O)c2C1=O [Shikonin] + C[C@]1(O)C[C@@H](c2nc(-c3ccc4ccc(-c5ccccc5)nc4c3)c3c(N)nccn32)C1 [Linsitinib] (partner 1 µM)
How it was run: as §1

[3] = compound: CC(C)N(CCCNC(=O)Nc1ccc(C(C)(C)C)cc1)C[C@H]1O[C@@H](n2ccc3c(N)ncnc32)[C@H](O)[C@@H]1O + C[C@@H](Oc1cc(-c2cnn(C3CCNCC3)c2)cnc1N)c1c(Cl)ccc(F)c1Cl [Crizotinib] (partner 1 µM)
How it was run: as §1

Cell Line | relative viability ([1]; first compound 0.08 µM) | relative viability ([1]; first compound 0.253 µM) | relative viability ([1]; first compound 0.8 µM) | relative viability ([1]; first compound 2.53 µM) | relative viability ([1]; first compound 8 µM) | relative viability ([2]; first compound 0.08 µM) | relative viability ([2]; first compound 0.253 µM) | relative viability ([2]; first compound 0.8 µM) | relative viability ([2]; first compound 2.53 µM) | relative viability ([2]; first compound 8 µM) | relative viability (Shikonin + Linsitinib; first compound 0.01 µM) | relative viability (Shikonin + Linsitinib; first compound 0.1 µM) | relative viability (Shikonin + Linsitinib; first compound 0.3162 µM) | relative viability (Shikonin + Linsitinib; first compound 1 µM) | relative viability ([3]; first compound 0.08 µM) | relative viability ([3]; first compound 0.253 µM) | relative viability ([3]; first compound 2.53 µM) | relative viability ([3]; first compound 8 µM) | relative viability ([3]; first compound 0.8 µM)
HCC-827 | 0.63 | 0.706 | 0.562 | 0.616 | 0.488 | 0.257 | 0.284 | 0.279 | 0.267 | 0.269 | 0.909 | 1.09 | 0.999 | 0.906 | 0.883 | 0.952 | 0.949 | 0.881 | 
LK-2 | 0.713 | 0.544 | 0.771 | 0.632 | 0.82 |  | 0.252 | 0.336 | 0.293 | 0.279 | 0.589 | 0.539 | 0.527 | 0.473 | 0.269 | 0.232 | 0.261 | 0.229 | 0.217
HCC-366 | 0.336 | 0.428 | 0.328 | 0.292 | 0.281 | 0.14 | 0.266 | 0.129 | 0.18 | 0.166 | 0.592 | 0.852 | 0.985 | 0.673 | 0.375 | 0.545 | 0.526 | 0.478 | 0.654
BEN | 0.974 | 1.25 | 1.24 | 1.03 | 1.02 | 0.705 | 0.646 | 0.762 | 0.694 | 0.72 | 1.07 | 0.962 | 1.12 | 1.07 | 0.836 | 0.768 | 0.715 | 0.921 | 0.825
NCI-H2347 | 0.525 | 0.593 | 0.534 | 0.655 | 0.548 | 0.444 | 0.411 | 0.439 | 0.441 | 0.409 | 0.976 | 0.987 | 1.07 | 0.977 | 0.752 | 0.497 | 0.709 | 0.738 | 0.582
201T | 0.83 | 0.891 |  | 0.809 | 0.797 | 0.334 | 0.368 |  | 0.304 | 0.351 | 1.01 | 1.04 | 1.08 | 1.03 | 1.01 | 1.01 | 1.03 | 1.04 | 1.09
NCI-H596 | 0.667 | 0.67 | 0.531 | 0.704 | 0.723 | 0.515 | 0.465 | 0.514 | 0.53 | 0.493 | 1.04 | 0.887 | 1.16 | 1.06 | 0.934 | 0.796 | 1 | 1.12 | 0.938
NCI-H838 | 0.75 | 0.829 | 0.794 | 0.812 | 0.728 | 0.259 | 0.223 | 0.283 | 0.245 | 0.235 | 1.05 | 1.08 | 1.07 | 1.03 | 0.796 | 0.873 | 0.778 | 0.759 | 0.91
HCC-15 | 0.669 | 0.754 | 0.702 | 0.758 | 0.709 | 0.221 | 0.225 | 0.229 | 0.213 | 0.219 | 0.99 | 0.906 | 0.874 | 0.935 | 0.85 | 0.804 | 0.832 | 0.776 | 0.819
LCLC-103H | 0.734 | 0.697 | 0.699 | 0.77 | 0.775 | 0.417 | 0.454 | 0.452 | 0.413 | 0.51 | 1.03 | 1.21 | 1.26 | 1.23 | 0.946 | 0.93 | 1 | 0.872 | 0.914
NCI-H460 | 0.391 | 0.433 | 0.388 | 0.33 | 0.345 | 0.0586 | 0.06 | 0.0609 | 0.0624 | 0.0643 | 0.914 | 0.819 | 0.992 | 0.904 | 0.827 | 1.1 | 0.88 | 0.696 | 0.958
EPLC-272H | 0.669 | 0.85 | 0.764 | 0.734 | 0.859 | 0.404 | 0.303 | 0.298 | 0.341 | 0.396 | 1.18 | 1.32 | 1.2 | 1.17 | 0.944 | 0.986 | 0.895 | 0.822 | 0.869
